For orientation: IC50 means the concentration that gives 50% inhibition.

14 molecules from patent publication US10053454B2 (Bristol-Myers Squibb Company, priority 2013, dated 2018) can be followed below.

The assay deals with BRD4 (Homo sapiens, UniProt O60885). Briefly: Time Resolved Fluorescence Resonance Energy Transfer (TR-FRET) binding assay. The following applies: one of the FRET assays described (BRD4 construct not given).

With `COc1ccc2c(c1)c1cc(-c3c(C)noc3C)cc(C(N)=O)c1n2S(C)(=O)=O` [Example 72, 3-(3,5-dimethylisoxazol-4-yl)-6-methoxy-9-(methylsulfonyl)-9H-carbazole-1-carboxamide], the IC50 is < 500 nM.
In the case of `Cc1noc(C)c1-c1cc(C(N)=O)c2c(c1)c1c(C(=O)N3C[C@@H](C)O[C@@H](C)C3)cc(C(F)(F)F)cc1n2S(C)(=O)=O` [Example 73, 3-(3,5-dimethyl-4-isoxazolyl)-5-((cis-2,6-dimethyl-4-morpholinyl)carbonyl)-9-(methylsulfonyl)-7-(trifluoromethyl)-9H-carbazole-1-carboxamide] it was < 500 nM; in that of `Cc1noc(C)c1-c1cc(C(N)=O)c2c(c1)c1c(C(=O)N3C[C@@H](C)O[C@@H](C)C3)cc(C(F)(F)F)cc1n2S(=O)(=O)C1CC1` [Example 74, 9-(cyclopropylsulfonyl)-3-(3,5-dimethyl-4-isoxazolyl)-5-((cis-2,6-dimethyl-4-morpholinyl)carbonyl)-7-(trifluoromethyl)-9H-carbazole-1-carboxamide], < 500 nM.
In the case of `Cc1noc(C)c1-c1cc(C(N)=O)c2c(c1)c1c(C(=O)N3C[C@@H](C)O[C@@H](C)C3)cc(OC(F)(F)F)cc1n2S(=O)(=O)C1CC1` [Example 75, 9-(cyclopropylsulfonyl)-3-(3,5-dimethyl-4-isoxazolyl)-5-((cis-2,6-dimethyl-4-morpholinyl)carbonyl)-7-(trifluoromethoxy)-9H-carbazole-1-carboxamide] it was < 500 nM; in that of `Cc1noc(C)c1-c1cc(C(N)=O)c2c(c1)c1c(C(=O)N3C[C@@H](C)O[C@@H](C)C3)cc(OC(F)(F)F)cc1n2S(C)(=O)=O` [Example 76, 3-(3,5-dimethyl-4-isoxazolyl)-5-((cis-2,6-dimethyl-4-morpholinyl)carbonyl)-9-(methylsulfonyl)-7-(trifluoromethoxy)-9H-carbazole-1-carboxamide], < 50 nM; in that of `Cc1noc(C)c1-c1cc(C(N)=O)c2c(c1)c1cc(S(C)(=O)=O)ccc1n2S(=O)(=O)C1CC1` [Example 77, 9-(cyclopropylsulfonyl)-3-(3,5-dimethyl-4-isoxazolyl)-6-(methylsulfonyl)-9H-carbazole-1-carboxamide], < 500 nM.
As for `Cc1noc(C)c1-c1cc(C(N)=O)c2c(c1)c1cc(S(C)(=O)=O)ccc1n2CC1CC1` [Example 78, 9-(cyclopropylmethyl)-3-(3,5-dimethyl-4-isoxazolyl)-6-(methylsulfonyl)-9H-carbazole-1-carboxamide], the figure is < 50 nM; as for `Cc1noc(C)c1-c1cc(C(N)=O)c2c(c1)c1ccc(S(C)(=O)=O)cc1n2CC1CC1` [Example 80, 9-(cyclopropylmethyl)-3-(3,5-dimethylisoxazol-4-yl)-7-(methylsulfonyl)-9H-carbazole-1-carboxamide], < 50 nM.
`Cc1noc(C)c1-c1cc(C(N)=O)c2c(c1)c1c(S(C)(=O)=O)cccc1n2CC1CC1` [Example 81, 9-(cyclopropylmethyl)-3-(3,5-dimethyl-4-isoxazolyl)-5-(methylsulfonyl)-9H-carbazole-1-carboxamide]: the IC50 is < 50 nM.
In the case of `Cc1n[nH]c(C)c1-c1cc(C(N)=O)c2c(c1)c1ccc(C(=O)N3C[C@@H](C)O[C@@H](C)C3)cc1n2CC1CC1` [Example 83, 9-(cyclopropylmethyl)-7-((cis-2,6-dimethyl-4-morpholinyl)carbonyl)-3-(3,5-dimethyl-1H-pyrazol-4-yl)-9H-carbazole-1-carboxamide] it was < 500 nM; in that of `Cc1nnn(C)c1-c1cc(C(N)=O)c2c(c1)c1ccc(C(=O)N3C[C@@H](C)O[C@@H](C)C3)cc1n2CC1CC1` [Example 84, 9-(cyclopropylmethyl)-7-((cis-2,6-dimethyl-4-morpholinyl)carbonyl)-3-(1,4-dimethyl-1H-1,2,3-triazol-5-yl)-9H-carbazole-1-carboxamide], < 500 nM; in that of `Cc1noc(C)c1-c1cc(-c2nnc[nH]2)c2c(c1)c1ccc(C(=O)N3C[C@@H](C)O[C@@H](C)C3)cc1n2CC1CC1` [Example 85, 9-(cyclopropylmethyl)-3-(3,5-dimethyl-4-isoxazolyl)-7-((cis-2,6-dimethyl-4-morpholinyl)carbonyl)-1-(1H-1,2,4-triazol-3-yl)-9H-carbazole], < 500 nM.
In the case of `Cc1noc(C)c1-c1cc(C(N)=O)c2c(c1)c1cc(C(=O)N3CCOCC3)ccc1n2S(=O)(=O)C1CC1` [Example 87, 9-(cyclopropylsulfonyl)-3-(3,5-dimethyl-4-isoxazolyl)-6-(4-morpholinylcarbonyl)-9H-carbazole-1-carboxamide] it was < 50 nM; in that of `Cc1noc(C)c1-c1cc(C(N)=O)c2c(c1)c1ccc(C(=O)N3C[C@@H](C)O[C@@H](C)C3)cc1n2S(=O)(=O)C1CC1` [Example 88, 9-(cyclopropylsulfonyl)-3-(3,5-dimethyl-4-isoxazolyl)-7-((cis-2,6-dimethyl-4-morpholinyl)carbonyl)-9H-carbazole-1-carboxamide], < 50 nM.
